The structures appear in SMILES notation.

T1 sequence (Q28502 19-295): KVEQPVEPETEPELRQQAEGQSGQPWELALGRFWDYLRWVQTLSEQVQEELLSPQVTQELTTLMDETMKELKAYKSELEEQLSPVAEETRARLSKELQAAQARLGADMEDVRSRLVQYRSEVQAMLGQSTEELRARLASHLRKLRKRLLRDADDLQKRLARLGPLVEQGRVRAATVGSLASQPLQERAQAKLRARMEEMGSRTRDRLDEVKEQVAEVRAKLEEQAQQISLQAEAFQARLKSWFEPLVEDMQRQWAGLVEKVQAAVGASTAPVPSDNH

One assay has as its system mRNA transcript for the firefly (Photinus pyralis) luciferase gene. Briefly: Mouse in vivo evaluation of efficacy (luciferase siRNA LNPs, liver luminescence). Conditions: Luc siRNA RDV, tail vein, 48 hours post dose, FIG. 1. The method, then:
LNPs utilizing Compounds 1-44, in the nominal compositions described immediately above, were evaluated for in vivo efficacy. The siRNA targets the mRNA transcript for the firefly (Photinus pyralis) luciferase gene (Accession #M15077). […] The in vivo luciferase model employs a transgenic mouse in which the firefly luciferase coding sequence is present in all cells. ROSA26-LoxP-Stop-LoxP-Luc (LSL-Luc) transgenic mice licensed from the Dana Farber Cancer Institute are induced to express the Luciferase gene by first removing the LSL sequence with a recombinant Ad-Cre virus (Vector Biolabs). Due to the organo-tropic nature of the virus, expression is limited to the liver when delivered via tail vein injection. Luciferase expression levels in liver are quantitated by measuring light output, using an IVIS imager (Xenogen) following administration of the luciferin substrate (Caliper Life Sciences). Pre-dose luminescence levels are measured prior to administration of the RDVs. Luciferin in PBS (15 mg/mL) is intraperitoneally (IP) injected in a volume of 150 μL. After a four minute incubation period mice are anesthetized with isoflurane and placed in the IVIS imager. The RDVs (containing siRNA) in PBS vehicle were tail vein injected in a volume of 0.2 mL. […] In vivo efficacy results are expressed as % inhibition of luminescence relative to pre-dose luminescence levels. […]
For the compound `CCCCC/C=C\C/C=C\CCCCCCCCCC(CCCCCCCCC)N(C)C` (centres unmarked) [Compound 1, (20Z,23Z)—N,N-dimethylnonacosa-20,23-dien-10-amine], the “efficacy (% inhibition of luminescence) compared with RDV containing octyl-CLinDMA (OCD)” value is recorded as “Greater efficacy”.

The next assay addresses T1, ApoE (Macaca mulatta, UniProt Q28502).
T1 construct: from tissue; host or cells: rhesus serum
Briefly: In vitro ApoE binding assay (anti-PEG capture, ApoE ELISA, stem-loop RT-PCR). The note with it: LNP 4 ug/mL in 90% rhesus serum, 37° C., 20 minutes; estimate of 500 siRNA per LNP. The method, then:
LNPs are incubated at 37° C. in 90% rhesus serum at a final LNP concentration of 4 ug/mL. Incubation is for 20 minutes with orbital rotation. After incubation, the samples are diluted 1:20 in PBS and 100 uL of each diluted sample is aliquoted to wells of an anti-PEG antibody coated 96-well plate (Life Diagnostics Cat. No. P-0001PL. After incubation at room temperature for 1 hour, the plate is washed 5× with 300 uL PBS. After washing, 50 uL of 0.2% Triton X-100 is added to each well and the plate incubated at 37° C. for 10 minutes, followed by shaking on a plate shaker for 1 minute at 750 rpm. Samples are frozen prior to performing the ApoE ELISA and stem loop PCR analysis of samples.
An ApoE ELISA assay is performed to quantitate ApoE bound to the LNPs after incubation in rhesus serum. Anti-ApoE antibody (Milipore, Cat No. AB947) is diluted 1:1000 in PBS and 100 uL of diluted antibody is added to each well of a polystyrene high binding plate. The plate with antibody is incubated overnight at 4° C., after which the plate is washed 2× with 200 uL of PBS. Next, 200 uL of buffer containing 1% BSA and 0.05% Tween-20 in PBS (Incubation Buffer) is added to each well followed by incubation at room temperature for 1 hour. Plates are washed 5× with PBS containing 0.05% Tween-20. Frozen Triton lysis test samples are thawed and diluted 1:6 with incubation buffer and 100 uL of test sample is aliquoted to wells of the ApoE antibody plate. Incubation is for 1 hour at room temperature followed by a 5× wash with PBS containing 0.05% Tween-20. After washing, 100 uL of biotinylated anti-ApoE antibody (Mabtech, Cat. ANo. E887-biotin), diluted 1:500 in incubation buffer, is added to each well and incubated for 1 hour at room temperature, followed by a 5× wash with 0.05% Tween-20 in PBS. 100 uL per well, of Streptavidin-HPR (Thermo, Cat. No. TS-125-HR), is then added and incubated for 1 hour at room temperature. After washing 5× with 0.05% Tween-20 in PBS, 100 uL of TMB Substrate (Thermo, Cat. No. 34028) is added to each well, followed by incubation at room temperature for 20 minutes in the dark. The calorimetric reaction is slopped with 100 uL of TMB Stop Solution (KPL, Cat. No. 50-85-04) and absorbance at 450 nm is determined. An ApoE standard curve is prepared by diluting rhesus Recombinant ApoE in incubation buffer with 0.03% Triton X-100 with concentrations ranging from 100 ng/mL to 0.78 ng/mL. ApoE standards are evaluated in the ELISA in parallel to the test samples. A rhesus serum only (no LNP) control is utilized to obtain a background subtraction for non-LNP dependent ApoE signal in the ELISA.
To normalize to the ApoE bound to the amount of LNP bound to the anti-PEG antibody plate, the amount of siRNA retained in the anti-PEG antibody well is quantitated by stem-loop PCR and related to the number of siRNAs encapsulated per LNP, to give an approximate measure of total LNP particles bound per well.
The standard curve is prepared using the molecular weight of the siRNA (13693 g/mol for ApoB 17063) to calculate the copy number. The high standard should contain 10^11 copies per 3 μl. A 10-fold serial dilution is performed across a row of an assay plate until the lowest standard contains 10^2 copies per 3 μl. Dilute 0.2% Triton X-100 1:80 in water and pipette 20 uL of the diluted Triton X-100 into 10 wells of a 96 well plate. 30 uL of the serial diluted standard curve and mix are added to each well of the plate. 10 uL of the spiked standard curve is used in the reverse transcription reaction.
Triton lysates from the PEG antibody plate capture are diluted 1 to 2000 in nuclease free water. 10 uL of ‘RT-Primer Mix’ (Applied Biosystem's TaqMan MicroRNA Reverse Transcription Kit Cat. No. 4366596) is added to each well of a 96-well Micro-Amp QPCR plate (ABI Cat #N801-0560).
[…] of each test sample (diluted 1 to 2000) or spiked standard curve (above) are aliquoted into the 96-well plate. […]
As for `CCCCC/C=C\C/C=C\CCCCCCCC(CCCCCCCCC)N(C)C` (centres unmarked) [Compound 8, (18Z,21Z)—N,N-dimethylheptacosa-18,21-dien-10-amine], the “ApoE Molecules/LNP” value is 4.9 Molecules/LNP.
On the same count and under the same terms, the value for `CCCCC/C=C\C/C=C\CCCCCCCCCCCC(CCCCCCCC)N(C)C` (centres unmarked) [Compound 16, (21Z,24Z)—N,N-dimethyltriaconta-21,24-dien-9-amine] was 3.3 Molecules/LNP.
Take `CCCCCCCCCCC/C=C\CCCCC(CCCCCCCCC)N(C)C` (centres unmarked) [Compound 24, (15Z)—N,N-dimethylheptacos-15-en-10-amine]: the “ApoE Molecules/LNP” value is on record as 1.2 Molecules/LNP.
In the case of `CCCCCCCCCCCCCC/C=C\CCCC(CCCCCCCCC)N(C)C` (centres unmarked) [Compound 25, (14Z)—N,N-dimethylnonacos-14-en-10-amine], the “ApoE Molecules/LNP” value is listed as 13.7 Molecules/LNP.
`CCCCCCCC/C=C\CCCCCCCCCC(CCCCCCCCC)N(C)C` (centres unmarked) [Compound 28, (20Z)—N,N-dimethylnonacos-20-en-10-amine]: the “ApoE Molecules/LNP” value is 4.7 Molecules/LNP.
The same measure, in the same setting: the value for `CCCCCCCC/C=C\CCCCCCCCCCCC(CCCCCCCCC)N(C)C` (centres unmarked) [Compound 29, (22Z)—N,N-dimethylhentriacont-22-en-10-amine] was 38 Molecules/LNP.
For the compound `CCCCCCCCCC(CCCCCCCCC[C@H]1C[C@H]1CCCCCC)N(C)C` (stereo partly drawn) [Compound 34, 1-[(1S,2R)-2-hexylcyclopropyl]-N,N-dimethylnonadecan-10-amine], the “ApoE Molecules/LNP” value is 2.3 Molecules/LNP.
The same measure, in the same setting: the value for `CCCCC/C=C\C/C=C\CCCCCCCCC1(CCCCCCCC/C=C\C/C=C\CCCCC)OCC(CCN(C)C)O1` (centres unmarked) [Compound 45, DLinKC2DMA, reference compound] was 32.5 Molecules/LNP.

The target of the next assay is T2, serum ApoE (Macaca mulatta, UniProt Q28502).
T2 construct: from tissue; host or cells: rhesus monkey serum
T2 sequence (Q28502 19-295): as above
Briefly: Heparin Sepharose HI-TRAP binding assay. Further details: species or system rhesus monkey. Conditions: HI-TRAP binding upon rhesus serum incubation, 2×DPBS conditions. As to the method: Lipid nanoparticles (LNP) with neutral surface charge are not retained after injection onto heparin sepharose with 1× Dulbecco's phosphate buffered saline (DPBS) as the running buffer but elute in the column void volume. […] Lipid nanoparticles with surface bound ApoE bind to heparin sepharose with high affinity and are eluted only at high salt (1M NaCl).
Lipid nanoparticles were incubated at 37° C. for 20 min at a final siRNA concentration of 50 μg/mL with various concentrations of either purified or recombinant human apolipoprotein E or 0.1-50% rat/mouse/rhesus monkey/human serum in 1× Dulbccco's phosphate buffered saline (DPBS). After incubation with ApoE or serum LNP samples were diluted 10-fold using 1×DPBS and analyzed by heparin sepharose chromatography. Peak area of retained LNP (after subtraction of appropriate blank signals) is compared to total peak area of LNP control without ApoE and/or serum incubation to determine the percentage of the LNP which undergoes shift to high affinity heparin interaction after incubation with ApoE/serum.
A heparin sepharose HI-TRAP™ chromatography column (GE Healthcare; 1 mL bed volume) is equilibrated with either 1× or 2× Dulbecco's PBS; the higher 2× salt concentration is used for LNPs with higher intrinsic retention on heparin sepharose (presumably due to higher positive surface charge). • Mobile Phase A: 1× or 2×DPBS • Mobile Phase B: 1M NaCl in 10 mM sodium phosphate buffer, pH 7.0 • 100% A delivered isocratically for 10 min followed by step gradient to 100% B; hold for additional 10 min; step gradient back to 100% A and reequilibrate for additional 10 min prior to injection of next sample • Flow rate: 1 mL/min • Sample injection volume: 50 μL. • Detection: UV @260 nm HI-TRAP™ Binding Results Upon Rhesus Serum Incubation (2×DPBS Conditions)
For the compound `CCCCC/C=C\C/C=C\CCCCCCCCC1(CCCCCCCC/C=C\C/C=C\CCCCC)OCC(CCN(C)C)O1` (centres unmarked) [Compound 45, DLinKC2DMA, reference compound], the “% Bound” value amounted to 58%.
In the case of `CCCCC/C=C\C/C=C\CCCCCCCCC(CCCCCCCC/C=C\C/C=C\CCCCC)OC(=O)CCCN(C)C` [Compound 46, MC3, reference compound], the “% Bound” value stood at 7%.

(Values after US11413348B2, “Low molecular weight cationic lipids for oligonucleotide delivery” (SIRNA THERAPEUTICS, INC., priority 2010, dated 2022).)
